Key:
[1] = tested on: disc space of the L3-4 intervertebral disc; test: Dimension of the disc space after local injection into the nucleus pulposus in a pig; assay type: in vivo; conditions: injected L3-4 disc compared with non-injected L2-3 and L4-5; FIG. 7
Procedure: 110. performing a cross-section of the discs and measuring the length (anterio-posterior direction) and the width (bilateral direction) of the disc space. Two pigs were anesthetized and placed on their right side. Access to the L4-5 intervertebral disc was obtained through a lateral incision between the lowest rib and the iliac crest on the left side of each pig. Thereafter, the L3-4 intervertebral disc was incised with a scalpel. […] The composition was injected in a single step at a single occasion. The intervertebral discs (L2-3, L3-4, L4-5) were cross-sectioned and the length of the disc space (anterio-posterior direction) and the width (bilateral direction) of the disc space were measured by calipers. In FIGS. 5 and 6, an intervertebral disc is schematically shown in cross-section. The intervertebral disc comprises the annulus fibrosus 10, and a disc space defined by the annulus fibrosus and comprising the nucleus pulposus 11.

[2] = Tolerability of intradiscal injection in pigs (behaviour, injection site by the naked eye); assay type: in vivo, pig; conditions: two pigs
Procedure: Two pigs were anesthetized and placed on their right side. Access to the L4-5 intervertebral disc was obtained through a lateral incision between the lowest rib and the iliac crest on the left side of each pig. Thereafter, the L3-4 intervertebral disc was incised with a scalpel.
The composition was injected in a single step at a single occasion.
At harvest, the pigs were killed.
The injection site was observed by the naked eye. […] The segment of the vertebral column extending from the lumbar vertebra L2 to the sacral vertebra S1 was removed. The facet joints were removed, thus allowing full flexibility of the discs with no restraints from other structures.

## CC(O)C(=O)O (stereo not drawn) [lactic acid]
[1]
  Observation of the cross-sectioned disc space by the naked eye: newly formed connective tissue in the disc space
[2]; 0.2 mL of 1.34 mol/L into L3-4 nucleus pulposus, period of seven days until harvest
  Adverse reaction such as decreased mobility or vocalization: no adverse reaction
[2]; observed by the naked eye at harvest, seven days
  Adverse reaction at the injection site, such as bleedings, inflammation or necrosis: No adverse reaction
